Eleven compounds from ChEMBL document CHEMBL1201862, “PubChem BioAssay data set” (2004) can be followed below.

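Where inhibition never reached the appropriate level, the endpoint shown equals the highest concentration tested. Otherwise, values were interpolated linearly from a five-concentration, 48-hour dose response in 96-well plates. Abbreviation: GI50, concentration required for 50% inhibition of growth.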 Calls of active or inactive are those of the source. Cut-off read from the data, not from the text of the source: active = GI50 up to about 1.1 µM and inactive = higher.

Some test systems named below: A549; Malme-3M; SK-MEL-28; SK-MEL-5; HCC 2998; SF-295; CAKI-1; SNB-75; SNB-19; EKVX; U-251; KM12; HCT-15; NCI-H226; SK-OV-3; MDA-N; HOP-62; MDA-MB-435; SN12C.
Experiment in all cases: growth of human tumour cells (NCI), 48 h

Regarding `S=C(Nc1ccc(Cl)cc1)SC1CCCCC1`, the GI50 in the test on A549 was 19.2 µM (inactive); in the test with Malme-3M it was 28.4 µM (inactive); with SK-MEL-28, 17.3 µM (inactive); with SK-MEL-5, 16.7 µM (inactive); with HCC 2998 it was 19.2 µM (inactive); in the test with SF-295 it was 19.1 µM (inactive). Moreover, the GI50 with CAKI-1 is 15 µM (inactive); in the test with SNB-75, 25.2 µM (inactive); in the test on SNB-19 it was 20.8 µM (inactive); with EKVX it was 20.8 µM (inactive); with U-251, 32.4 µM (inactive); in the test with KM12, 28 µM (inactive). The GI50 in the test on HCT-15 is 23.2 µM; with NCI-H226 it was 72.4 µM (inactive); in the test with SK-OV-3 it was 27.8 µM (inactive); in the test on MDA-N, 22.8 µM (inactive); with HOP-62, 27.7 µM (inactive); in the test with MDA-MB-435, 29.9 µM (inactive). Moreover, the GI50 in the test on SN12C is 19.2 µM (inactive).
As to `CC1CCc2sc3nc(S)n(-c4ccccc4)c(=O)c3c2C1` (centres undefined), the GI50 was 81.8 µM (inactive) in the test with A549; 66.8 µM (inactive) with Malme-3M; 93.1 µM (inactive) in the test on SK-MEL-28; 44.1 µM (inactive) with SK-MEL-5; 21.6 µM (inactive) in the test with HCC 2998; 27.7 µM (inactive) in the test with SF-295. The GI50 is > 100 µM (inactive) with CAKI-1; 29.3 µM (inactive) in the test on SNB-75; 45.5 µM (inactive) with SNB-19; > 100 µM (inactive) in the test with EKVX; 49.2 µM (inactive) with U-251; 75.2 µM (inactive) in the test on KM12. Also, the GI50 with HCT-15 is more than 100 µM; in the test on NCI-H226 it was 48.9 µM (inactive); in the test with SK-OV-3, 55.1 µM (inactive); with MDA-N it was > 100 µM (inactive); in the test on HOP-62 it was 36.3 µM (inactive); with MDA-MB-435, > 100 µM (inactive). For the same compound, in the test with SN12C, the GI50 was > 100 µM (inactive).
Regarding `Oc1ccc(Br)cc1/C=N/c1cccc(C(F)(F)F)c1`, the GI50 in the test with A549 is > 100 µM (inactive); with Malme-3M, 23.5 µM (inactive); in the test with SK-MEL-28, 36.1 µM (inactive); with SK-MEL-5 it was 28.3 µM (inactive); with HCC 2998, 23.1 µM (inactive); in the test on SF-295 it was 38.6 µM (inactive). For the same compound, the GI50 with CAKI-1 was 66.7 µM (inactive); with SNB-75, 42.6 µM (inactive); in the test on SNB-19, 39.4 µM (inactive); with EKVX it was 27.1 µM (inactive); with U-251, 6.89 µM (inactive); in the test on KM12, 36.6 µM (inactive). In addition, the GI50 in the test with HCT-15 was 6.07 µM; in the test on NCI-H226 it was 17.3 µM (inactive); with SK-OV-3, 45.7 µM (inactive); with MDA-N, 32.9 µM (inactive); in the test on HOP-62 it was 49.5 µM (inactive); in the test with MDA-MB-435 it was 30.5 µM (inactive). Further, the GI50 in the test on SN12C is 30.5 µM (inactive).
For the compound `C=C1C(=O)O[C@H]2[C@H]3O[C@@H](C[C@@H]12)[C@@]1(C)CC[C@H](O1)C(C)=CCC[C@H]3C`, the GI50 in the test with A549 was 2.25 µM (inactive); with Malme-3M, 1.75 µM (inactive); in the test with SK-MEL-28, 1.82 µM (inactive); in the test on SK-MEL-5, 1.49 µM (inactive); with HCC 2998, 1.75 µM (inactive); in the test with SF-295, 5.16 µM (inactive). Besides, the GI50 in the test on CAKI-1 was 1.28 µM (inactive); in the test with SNB-75 it was 1.73 µM (inactive); with SNB-19 it was 6.35 µM (inactive); with EKVX it was 1.52 µM (inactive); in the test with U-251 it was 1.61 µM (inactive); in the test on KM12 it was 1.8 µM (inactive). The GI50 with HCT-15 is 1.49 µM; with NCI-H226, 2.46 µM (inactive); in the test on SK-OV-3 it was 4.58 µM (inactive); with MDA-N it was 1.53 µM (inactive); with HOP-62 it was 6.27 µM (inactive); in the test with MDA-MB-435 it was 1.46 µM (inactive). The GI50 in the test with SN12C is 1.65 µM (inactive).
Turning to `COc1ccccc1C1ON=C(c2ccc([N+](=O)[O-])cc2)N1C12CC3CC(CC(C3)C1)C2` (centres undefined), the GI50 was 94 µM (inactive) with A549; 61.5 µM (inactive) in the test with Malme-3M; > 100 µM (inactive) in the test on SK-MEL-28; 59.6 µM (inactive) with SK-MEL-5; > 100 µM (inactive) with HCC 2998; 80.2 µM (inactive) in the test with SF-295. Moreover, the GI50 with CAKI-1 is > 100 µM (inactive); in the test with SNB-75 it was 42.1 µM (inactive); in the test on SNB-19, > 100 µM (inactive); in the test with EKVX, > 100 µM (inactive); in the test with U-251, > 100 µM (inactive); in the test on KM12, > 100 µM (inactive). The GI50 in the test on HCT-15 is 91.6 µM; with NCI-H226 it was > 100 µM (inactive); with SK-OV-3 it was > 100 µM (inactive); with MDA-N it was > 100 µM (inactive); in the test on HOP-62, 20.4 µM (inactive); with MDA-MB-435, 96.4 µM (inactive). Also, in the test on SN12C, the GI50 is > 100 µM (inactive).
As for `CC12CCC(C(Nc3ccccn3)C1=O)C2(C)C` (centres undefined), the GI50 in the test with A549 is > 100 µM (inactive); with Malme-3M it was > 100 µM (inactive); in the test with SK-MEL-28 it was > 100 µM (inactive); in the test with SK-MEL-5 it was > 100 µM (inactive); in the test with HCC 2998, 29.9 µM (inactive); in the test on SF-295 it was > 100 µM (inactive). For the same compound, the GI50 was > 100 µM (inactive) in the test with CAKI-1; 63 µM (inactive) in the test on SNB-75; > 100 µM (inactive) with SNB-19; > 100 µM (inactive) in the test with EKVX; > 100 µM (inactive) with U-251; > 100 µM (inactive) in the test with KM12. The GI50 in the test on HCT-15 was more than 100 µM; in the test with NCI-H226, > 100 µM (inactive); in the test on SK-OV-3, > 100 µM (inactive); in the test on MDA-N, > 100 µM (inactive); in the test with HOP-62, > 100 µM (inactive); with MDA-MB-435 it was > 100 µM (inactive). Further, the GI50 with SN12C is > 100 µM (inactive).
In the case of `CCOC(=O)c1c(NS(=O)(=O)c2ccc(Br)cc2)sc2c1CCCC2`, the GI50 with A549 is 7.78 µM (inactive); in the test on Malme-3M, 12.9 µM (inactive); in the test on SK-MEL-28, 15.8 µM (inactive); in the test with SK-MEL-5 it was 7.29 µM (inactive); in the test with HCC 2998, 16.7 µM (inactive); in the test on SF-295, 3.92 µM (inactive). In addition, the GI50 in the test on CAKI-1 was 10.2 µM (inactive); with SNB-75, 4.11 µM (inactive); in the test on SNB-19 it was 7.46 µM (inactive); with EKVX, 4.52 µM (inactive); with U-251 it was 12.4 µM (inactive); in the test with KM12 it was 6.65 µM (inactive). Further, the GI50 is 7.35 µM in the test with HCT-15; 3.66 µM (inactive) in the test on NCI-H226; 18.5 µM (inactive) in the test on SK-OV-3; 13.8 µM (inactive) with MDA-N; 5.9 µM (inactive) with HOP-62; 19.4 µM (inactive) with MDA-MB-435. Also, the GI50 in the test with SN12C was 6.14 µM (inactive).
In the case of `COC(=O)/C(=N\NC(N)=O)C(C(=O)C(=O)Nc1ccccc1OC)c1nc2ccc([N+](=O)[O-])cc2nc1O` (centres undefined), the GI50 in the test on A549, in the test on Malme-3M, with SK-MEL-28, in the test with SK-MEL-5, in the test on HCC 2998 and in the test on SF-295 was > 100 µM (inactive) in each case. Further, the GI50 is > 100 µM (inactive) in the test on CAKI-1; > 100 µM (inactive) with SNB-75; > 100 µM (inactive) in the test on SNB-19; > 100 µM (inactive) in the test with EKVX; > 100 µM (inactive) in the test on U-251; 58.1 µM (inactive) in the test on KM12. The GI50 in the test with HCT-15 is more than 100 µM; with NCI-H226, > 100 µM (inactive); in the test with SK-OV-3, > 100 µM (inactive); with MDA-N it was 55.1 µM (inactive); in the test with HOP-62, > 100 µM (inactive); in the test with MDA-MB-435 it was 44.3 µM (inactive). Also, in the test with SN12C, the GI50 is > 100 µM (inactive).
For the compound `COCc1nc2c(OC)c(-c3nc4ccc(N5CCN(C)CC5)nc4[nH]3)cc(OC)c2[nH]1`, the GI50 was 46 µM (inactive) in the test with A549; 20.7 µM (inactive) in the test with Malme-3M; 28 µM (inactive) in the test with SK-MEL-28; 18.6 µM (inactive) with SK-MEL-5; 99.3 µM (inactive) in the test on HCC 2998; 31.6 µM (inactive) in the test on SF-295. The GI50 with CAKI-1 was > 100 µM (inactive); in the test on SNB-75, 18 µM (inactive); in the test on SNB-19, 48 µM (inactive); in the test on EKVX, 68.1 µM (inactive); in the test with U-251 it was 39.7 µM (inactive); in the test on KM12 it was 27.4 µM (inactive). The GI50 was 38.1 µM in the test on HCT-15; > 100 µM (inactive) with NCI-H226; 45.3 µM (inactive) in the test on SK-OV-3; 73.3 µM (inactive) in the test on MDA-N; 40.1 µM (inactive) in the test with HOP-62; 41.8 µM (inactive) in the test with MDA-MB-435. The GI50 in the test on SN12C is 51.5 µM (inactive).
`CN1CSC(=S)N(c2cccc(C(F)(F)F)c2)C1`: the GI50 in the test with A549 is 24.3 µM (inactive); in the test with Malme-3M it was 18.7 µM (inactive); in the test with SK-MEL-28, 23.1 µM (inactive); with SK-MEL-5, 17.1 µM (inactive); in the test with HCC 2998, 18.6 µM (inactive); in the test with SF-295, 21.8 µM (inactive). For the same compound, the GI50 was 26.4 µM (inactive) in the test on CAKI-1; 42.2 µM (inactive) in the test with SNB-75; 21.5 µM (inactive) with SNB-19; 25 µM (inactive) with EKVX; 32 µM (inactive) in the test on U-251; 22.4 µM (inactive) in the test on KM12. Moreover, the GI50 in the test with HCT-15 was 18.7 µM; in the test with NCI-H226 it was 24.3 µM (inactive); with SK-OV-3 it was 29.4 µM (inactive); in the test with MDA-N it was 29.2 µM (inactive); in the test on HOP-62 it was 26.9 µM (inactive); in the test with MDA-MB-435, 22.5 µM (inactive). Also, the GI50 in the test on SN12C is 36.1 µM (inactive).
As for `Nc1nc(O)nc2c1ncn2C1OC(CO)C(O)C1O` (centres undefined), the GI50 is > 100 µM (inactive) with A549; > 100 µM (inactive) in the test with Malme-3M; > 100 µM (inactive) with SK-MEL-28; > 100 µM (inactive) in the test on SK-MEL-5; 25.7 µM (inactive) with HCC 2998; > 100 µM (inactive) in the test on SF-295. Further, the GI50 in the test on CAKI-1 was 54 µM (inactive); with SNB-75, 6.18 µM (inactive); with SNB-19 it was > 100 µM (inactive); in the test on EKVX, > 100 µM (inactive); in the test with U-251, > 100 µM (inactive); in the test with KM12, > 100 µM (inactive). The GI50 with HCT-15 is 28.4 µM; with NCI-H226, 69.3 µM (inactive); in the test on SK-OV-3, 40.2 µM (inactive); in the test with MDA-N it was 46.5 µM (inactive); with HOP-62, > 100 µM (inactive); in the test on MDA-MB-435 it was 57.5 µM (inactive). The GI50 in the test on SN12C is 33.1 µM (inactive).
